Measured values taken from ChEMBL document CHEMBL3885881, “DrugMatrix”.

Organism: Rattus norvegicus
Assay: DrugMatrix - Regimen: Daily Repeat
Type: toxicity, organism-based, Sprague-Dawley
Set-up: regimen Daily Repeat, gender Male, age 6-8 weeks
Settings: in vivo, po, route oral GAVAGE, […]; for ABSOLUTE BASOPHIL / ABSOLUTE EOSINOPHIL / ABSOLUTE LYMPHOCYTE / ABSOLUTE MONOCYTE / ABSOLUTE SEGMENTED NEUTROPHIL / BASOPHIL / EOSINOPHIL / ERYTHROCYTE COUNT / HEMATOCRIT / HEMOGLOBIN / LEUKOCYTE COUNT / LYMPHOCYTE / MEAN CORPUSCULAR HEMOGLOBIN / MEAN CORPUSCULAR HEMOGLOBIN CONCENTRATION / MEAN CORPUSCULAR VOLUME / MONOCYTE / NEUTROPHIL / NUCLEATED RED BLOOD CELLS / PLATELET COUNT: tissue Blood; for ALANINE AMINOTRANSFERASE / ALBUMIN / ALKALINE PHOSPHATASE / ASPARTATE AMINOTRANSFERASE / BLOOD UREA NITROGEN / CARBON DIOXIDE / CHLORIDE / CHOLESTEROL / CREATINE PHOSPHOKINASE / CREATININE / GLUCOSE / LACTATE DEHYDROGENASE / LIPASE / PHOSPHORUS / POTASSIUM / SODIUM / TOTAL BILIRUBIN / TOTAL PROTEIN / URIC ACID: tissue Plasma
[1] = 20 mg/kg, 72 h, dose level Low, time 3 day
[2] = 20 mg/kg, 120 h, dose level Low, time 5 day
[3] = 62 mg/kg, 72 h, dose level High, time 3 day
[4] = 62 mg/kg, 120 h, dose level High, time 5 day

CCCSc1ccc2nc(NC(=O)OC)[nH]c2c1 [ALBENDAZOLE]
ABSOLUTE BASOPHIL [1]: 0 CELLS/uL
ABSOLUTE EOSINOPHIL [1]: 0 CELLS/uL
ABSOLUTE LYMPHOCYTE [1]: 12808 CELLS/uL
ABSOLUTE MONOCYTE [1]: 184.67 CELLS/uL
ABSOLUTE SEGMENTED NEUTROPHIL [1]: 1574 CELLS/uL
BASOPHIL [1]: 0%
EOSINOPHIL [1]: 0%
ERYTHROCYTE COUNT [1]: 5.37 x10E6/uL
HEMATOCRIT [1]: 33.33%
HEMOGLOBIN [1]: 13.47 G/DL
LEUKOCYTE COUNT [1]: 14.57 x10E3/uL
LYMPHOCYTE [1]: 88.67%
MEAN CORPUSCULAR HEMOGLOBIN [1]: 25.17 pg
MEAN CORPUSCULAR HEMOGLOBIN CONCENTRATION [1]: 40.47 G/DL
MEAN CORPUSCULAR VOLUME [1]: 62.17 fL
MONOCYTE [1]: 1.33%
NEUTROPHIL [1]: 10%
NUCLEATED RED BLOOD CELLS [1]: 0.33 /100WBC
PLATELET COUNT [1]: 1157.33 x10E3/uL
ALANINE AMINOTRANSFERASE [1]: 56.33 u/L
ALBUMIN [1]: 3.6 G/DL
ALKALINE PHOSPHATASE [1]: 430 u/L
ASPARTATE AMINOTRANSFERASE [1]: 87.33 u/L
BLOOD UREA NITROGEN [1]: 13.33 mg/dL
CARBON DIOXIDE [1]: 24.67 mmol/L
CHLORIDE [1]: 101 MEQ/L
CHOLESTEROL [1]: 64 mg/dL
CREATINE PHOSPHOKINASE [1]: 390.67 u/L
CREATININE [1]: 0.21 mg/dL
GLUCOSE [1]: 220.67 mg/dL
LACTATE DEHYDROGENASE [1]: 112.33 u/L
LIPASE [1]: 10.67 u/L
PHOSPHORUS [1]: 12.2 mg/dL
POTASSIUM [1]: 6.27 MEQ/L
SODIUM [1]: 141.23 MEQ/L
TOTAL BILIRUBIN [1]: 0.2 mg/dL
TOTAL PROTEIN [1]: 5.2 G/DL
URIC ACID [1]: 2.23 mg/dL
ABSOLUTE BASOPHIL [2]: 0 CELLS/uL
ABSOLUTE EOSINOPHIL [2]: 69.33 CELLS/uL
ABSOLUTE LYMPHOCYTE [2]: 7738 CELLS/uL
ABSOLUTE MONOCYTE [2]: 149.67 CELLS/uL
ABSOLUTE SEGMENTED NEUTROPHIL [2]: 776.33 CELLS/uL
BASOPHIL [2]: 0%
EOSINOPHIL [2]: 0.67%
ERYTHROCYTE COUNT [2]: 4.93 x10E6/uL
HEMATOCRIT [2]: 31.3%
HEMOGLOBIN [2]: 12.87 G/DL
LEUKOCYTE COUNT [2]: 8.73 x10E3/uL
LYMPHOCYTE [2]: 89.33%
MEAN CORPUSCULAR HEMOGLOBIN [2]: 26.07 pg
MEAN CORPUSCULAR HEMOGLOBIN CONCENTRATION [2]: 41.1 G/DL
MEAN CORPUSCULAR VOLUME [2]: 63.4 fL
MONOCYTE [2]: 1.67%
NEUTROPHIL [2]: 8.33%
NUCLEATED RED BLOOD CELLS [2]: 0 /100WBC
PLATELET COUNT [2]: 1525.33 x10E3/uL
ALANINE AMINOTRANSFERASE [2]: 53.67 u/L
ALBUMIN [2]: 4.03 G/DL
ALKALINE PHOSPHATASE [2]: 375.33 u/L
ASPARTATE AMINOTRANSFERASE [2]: 79 u/L
BLOOD UREA NITROGEN [2]: 15 mg/dL
CARBON DIOXIDE [2]: 26 mmol/L
CHLORIDE [2]: 102.67 MEQ/L
CHOLESTEROL [2]: 67 mg/dL
CREATINE PHOSPHOKINASE [2]: 225.67 u/L
CREATININE [2]: 0.21 mg/dL
GLUCOSE [2]: 161 mg/dL
LACTATE DEHYDROGENASE [2]: 141 u/L
LIPASE [2]: 11.67 u/L
PHOSPHORUS [2]: 10.97 mg/dL
POTASSIUM [2]: 5.64 MEQ/L
SODIUM [2]: 141.93 MEQ/L
TOTAL BILIRUBIN [2]: 0.1 mg/dL
TOTAL PROTEIN [2]: 5.5 G/DL
URIC ACID [2]: 1.37 mg/dL
ABSOLUTE BASOPHIL [3]: 0 CELLS/uL
ABSOLUTE EOSINOPHIL [3]: 0 CELLS/uL
ABSOLUTE LYMPHOCYTE [3]: 10254.67 CELLS/uL
ABSOLUTE MONOCYTE [3]: 0 CELLS/uL
ABSOLUTE SEGMENTED NEUTROPHIL [3]: 712 CELLS/uL
BASOPHIL [3]: 0%
EOSINOPHIL [3]: 0%
ERYTHROCYTE COUNT [3]: 5.64 x10E6/uL
HEMATOCRIT [3]: 34.47%
HEMOGLOBIN [3]: 13.47 G/DL
LEUKOCYTE COUNT [3]: 10.97 x10E3/uL
LYMPHOCYTE [3]: 94%
MEAN CORPUSCULAR HEMOGLOBIN [3]: 24 pg
MEAN CORPUSCULAR HEMOGLOBIN CONCENTRATION [3]: 39.13 G/DL
MEAN CORPUSCULAR VOLUME [3]: 61.27 fL
MONOCYTE [3]: 0%
NEUTROPHIL [3]: 6%
NUCLEATED RED BLOOD CELLS [3]: 0 /100WBC
PLATELET COUNT [3]: 1007.33 x10E3/uL
ALANINE AMINOTRANSFERASE [3]: 44 u/L
ALBUMIN [3]: 4.13 G/DL
ALKALINE PHOSPHATASE [3]: 381 u/L
ASPARTATE AMINOTRANSFERASE [3]: 99.67 u/L
BLOOD UREA NITROGEN [3]: 11 mg/dL
CARBON DIOXIDE [3]: 27.33 mmol/L
CHLORIDE [3]: 101.33 MEQ/L
CHOLESTEROL [3]: 99 mg/dL
CREATINE PHOSPHOKINASE [3]: 278 u/L
CREATININE [3]: 0.13 mg/dL
GLUCOSE [3]: 161.33 mg/dL
LACTATE DEHYDROGENASE [3]: 198.67 u/L
LIPASE [3]: 11.67 u/L
PHOSPHORUS [3]: 10.53 mg/dL
POTASSIUM [3]: 5.98 MEQ/L
SODIUM [3]: 141.53 MEQ/L
TOTAL BILIRUBIN [3]: 0.17 mg/dL
TOTAL PROTEIN [3]: 5.8 G/DL
URIC ACID [3]: 1.43 mg/dL
ABSOLUTE BASOPHIL [4]: 0 CELLS/uL
ABSOLUTE EOSINOPHIL [4]: 0 CELLS/uL
ABSOLUTE LYMPHOCYTE [4]: 7019.67 CELLS/uL
ABSOLUTE MONOCYTE [4]: 23.67 CELLS/uL
ABSOLUTE SEGMENTED NEUTROPHIL [4]: 190 CELLS/uL
BASOPHIL [4]: 0%
EOSINOPHIL [4]: 0%
ERYTHROCYTE COUNT [4]: 5.03 x10E6/uL
HEMATOCRIT [4]: 31%
HEMOGLOBIN [4]: 12.5 G/DL
LEUKOCYTE COUNT [4]: 7.23 x10E3/uL
LYMPHOCYTE [4]: 97%
MEAN CORPUSCULAR HEMOGLOBIN [4]: 24.9 pg
MEAN CORPUSCULAR HEMOGLOBIN CONCENTRATION [4]: 40.33 G/DL
MEAN CORPUSCULAR VOLUME [4]: 61.77 fL
MONOCYTE [4]: 0.33%
NEUTROPHIL [4]: 2.67%
NUCLEATED RED BLOOD CELLS [4]: 0 /100WBC
PLATELET COUNT [4]: 1425 x10E3/uL
ALANINE AMINOTRANSFERASE [4]: 29.33 u/L
ALBUMIN [4]: 4.03 G/DL
ALKALINE PHOSPHATASE [4]: 247.67 u/L
ASPARTATE AMINOTRANSFERASE [4]: 66.33 u/L
BLOOD UREA NITROGEN [4]: 12.33 mg/dL
CARBON DIOXIDE [4]: 24.33 mmol/L
CHLORIDE [4]: 101.33 MEQ/L
CHOLESTEROL [4]: 90.67 mg/dL
CREATINE PHOSPHOKINASE [4]: 237.67 u/L
CREATININE [4]: 0.11 mg/dL
GLUCOSE [4]: 141.33 mg/dL
LACTATE DEHYDROGENASE [4]: 106.33 u/L
LIPASE [4]: 11 u/L
PHOSPHORUS [4]: 11.33 mg/dL
POTASSIUM [4]: 6.31 MEQ/L
SODIUM [4]: 141.93 MEQ/L
TOTAL BILIRUBIN [4]: 0.27 mg/dL
TOTAL PROTEIN [4]: 5.37 G/DL
URIC ACID [4]: 1.77 mg/dL
